PMC3681905, “Anti-Influenza Activity of C60 Fullerene Derivatives” (PLoS ONE, 2013)
Read-outs that look alike come from different tables or passages of the source.

Tests used:
[1] = system: influenza A virus A/PR/8/34 (H1N1); test: microbe, parasite or virus in culture; format: cell-based; settings: read-out: IC50 H1N1 PR8 strain
[2] = system: influenza A virus A/Aichi/2/68 (H3N2); test: microbe, parasite or virus in culture; format: cell-based; settings: read-out: IC50 H3N2 Aichi strain
[3] = parameters: method as in earlier work; settings: cited from earlier work
[4] = system: HIV-reverse transcriptase; parameters: method as in PMID 15686922; settings: cited from earlier work

Molecule	IC50 [1] [µM]	IC50 [2] [µM]	antioxidant activity [3]	IC50 ([1]; Influenza A virus, MDCK, 24 h) [µM]	IC50 ([2]; Influenza A virus, H3N2, MDCK, 24 h) [µM]	inhibition of HIV-reverse transcriptase [4]
[60]fullerenodicyclopropane-1,1,1′,1′-tetracarboxylic acid [no. 2]	57	> 100	excellent antioxidant activity			
O=C(O)C1NC(C(=O)O)C23c4c5c6c7c8c9c(c%10c%11c2c2c4c4c%12c5c5c6c6c8c8c%13c9c9c%10c%10c%11c%11c2c2c4c4c%12c%12c5c5c6c8c6c8c%13c9c9c%10c%10c%11c2c2c4c4c%12c5c6c5c8c9c%10c2c45)C713 (stereo not drawn) [no. 3, [60]fullerenopyrrolidine-2,5-dicarboxylic acid]				> 100	> 100	inhibits
